For one experiment, the target named is 5-HT3 (Homo sapiens, UniProt P46098). The experiment in a line: Receptor binding 5-HT3. The following applies: radioligand [3H]-BRL 43694, read-out: Ki(nM) Compound 1. As for the experimental part:
(§1) Receptor binding data were obtained by CEREP (128, rue Danton, 92500 Rueil-Malmaison, France) or at Solvay Pharmaceuticals B.V., using well documented standard procedures. Affinity for 5-HT1A receptors for instance, was determined by testing the ability of the compounds of the invention to displace [^3H]-2-(di-n-propylamino)-8-hydroxytetralin ([^3H]-8-OH-DPAT) from its specific binding sites in rat frontal cortex homogenates. This test is based on the method described by Gozlan et al. (Nature, 305, (1983), pages 140-142).
(§2) The binding data collected in the table below were either obtained by CEREP (128, rue Danton, 92500 Rueil-Malmaison, France) or at Solvay Pharmaceuticals B.V., using well documented standard procedures.

The target in the next experiment is 5-HTreuptake (Homo sapiens, UniProt P31645). As to the kind of experiment: Binding 5-HT reuptake. To be noted: radioligand [3H]-paroxetine, read-out: Ki(nM) Compound 1. As for the experimental part:
as §1, §2

The target of a further experiment is β1-adrenergic (Homo sapiens, UniProt P08588). As to the kind of experiment: Receptor binding β1-adrenergic. The following applies: radioligand [3H]-CGP 12177, read-out: Ki(nM) Compound 1. The protocol: as §1, §2
Another experiment has as its target Dopamine-D1 (Homo sapiens, UniProt P21728). The experiment in a line: Receptor binding Dopamine-D1. The following applies: radioligand [3H]-SCH 23390, read-out: Ki(nM) Compound 1. The protocol:
as §1, §2

The target of a further experiment is Dopamine-D4 (Homo sapiens, UniProt P21917). As to the kind of experiment: Receptor binding Dopamine-D4. The following applies: radioligand [3H]-spiperone, read-out: Ki(nM) Compound 1. The protocol:
as §1, §2

In another experiment the target is Muscarine-M4 (Homo sapiens, UniProt P08173). As to the kind of experiment: Receptor binding Muscarine-M4. To be noted: radioligand [3H]-4-DAMP, read-out: Ki(nM) Compound 1. The protocol:
as §1, §2

A further experiment has as its target δ-opiate (Rattus norvegicus, UniProt P33533). The experiment in a line: Receptor binding δ-opiate. The following applies: radioligand [3H]-DPDPE, read-out: Ki(nM) Compound 1. The protocol: as §1, §2
Another experiment has as its target nociceptin (ORL1) (Homo sapiens, UniProt P41146). As to the kind of experiment: Receptor binding nociceptin (ORL1). To be noted: radioligand [3H]-nociceptine, read-out: Ki(nM) Compound 1. The protocol: as §1, §2
In the next experiment the target is Ca++-channel (Rattus norvegicus, UniProt Q02294). As to the kind of experiment: biochemical. It counts as binding.
In the next experiment the target is Adenosine-A1 (Homo sapiens, UniProt P30542). As to the kind of experiment: Receptor binding Adenosine-A1. To be noted: radioligand [3H]-DPCPX, read-out: Ki(nM) Compound 1. The protocol: as §1, §2
For a further experiment, the target named is LTD4 (Cavia porcellus, UniProt Q2NNR5). As to the kind of experiment: Receptor binding LTD4. The following applies: radioligand [3H]-LTD4; guinea pig; read-out: Ki(nM) Compound 1. The protocol: as §1, §2
The next experiment addresses PACAP (Rattus norvegicus, UniProt P32215). As to the kind of experiment: Receptor binding PACAP. The following applies: radioligand [125I]-PACAP 1-27, read-out: Ki(nM) Compound 1. The protocol: as §1, §2

Dopamine-D4, sequence (P21917 whole entry): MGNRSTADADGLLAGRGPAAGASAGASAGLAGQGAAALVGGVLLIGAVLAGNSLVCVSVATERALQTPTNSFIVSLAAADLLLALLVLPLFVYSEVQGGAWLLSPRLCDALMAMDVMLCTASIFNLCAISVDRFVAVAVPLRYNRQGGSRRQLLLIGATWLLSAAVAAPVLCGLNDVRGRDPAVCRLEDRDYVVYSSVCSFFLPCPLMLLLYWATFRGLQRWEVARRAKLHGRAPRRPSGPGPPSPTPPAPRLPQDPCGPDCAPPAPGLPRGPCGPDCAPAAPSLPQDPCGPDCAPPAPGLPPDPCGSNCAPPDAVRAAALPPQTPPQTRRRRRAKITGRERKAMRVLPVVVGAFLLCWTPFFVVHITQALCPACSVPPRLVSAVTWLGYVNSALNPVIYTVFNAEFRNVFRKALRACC
Adenosine-A1, sequence (P30542 whole entry): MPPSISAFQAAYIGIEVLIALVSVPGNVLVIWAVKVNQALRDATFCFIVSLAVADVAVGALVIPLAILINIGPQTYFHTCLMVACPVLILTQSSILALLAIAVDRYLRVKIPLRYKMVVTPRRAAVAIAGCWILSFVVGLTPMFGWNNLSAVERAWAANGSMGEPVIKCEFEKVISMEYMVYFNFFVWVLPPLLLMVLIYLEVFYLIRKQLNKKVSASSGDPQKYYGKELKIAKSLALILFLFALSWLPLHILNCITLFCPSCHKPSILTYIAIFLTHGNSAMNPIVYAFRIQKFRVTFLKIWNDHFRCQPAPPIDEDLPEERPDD
Muscarine-M4, sequence (P08173 whole entry): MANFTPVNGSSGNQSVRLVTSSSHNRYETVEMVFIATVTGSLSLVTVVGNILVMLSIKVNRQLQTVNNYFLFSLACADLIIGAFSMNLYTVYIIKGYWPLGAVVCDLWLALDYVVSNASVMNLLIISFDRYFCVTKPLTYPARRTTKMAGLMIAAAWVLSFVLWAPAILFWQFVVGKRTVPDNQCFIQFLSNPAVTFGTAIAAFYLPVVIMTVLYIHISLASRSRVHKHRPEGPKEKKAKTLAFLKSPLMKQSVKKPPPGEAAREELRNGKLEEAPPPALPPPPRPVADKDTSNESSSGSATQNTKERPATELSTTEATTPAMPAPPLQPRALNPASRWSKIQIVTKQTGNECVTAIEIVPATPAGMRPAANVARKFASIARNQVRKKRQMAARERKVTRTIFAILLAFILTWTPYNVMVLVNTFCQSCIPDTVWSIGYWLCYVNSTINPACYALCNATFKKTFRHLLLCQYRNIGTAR
nociceptin (ORL1), sequence (P41146 whole entry): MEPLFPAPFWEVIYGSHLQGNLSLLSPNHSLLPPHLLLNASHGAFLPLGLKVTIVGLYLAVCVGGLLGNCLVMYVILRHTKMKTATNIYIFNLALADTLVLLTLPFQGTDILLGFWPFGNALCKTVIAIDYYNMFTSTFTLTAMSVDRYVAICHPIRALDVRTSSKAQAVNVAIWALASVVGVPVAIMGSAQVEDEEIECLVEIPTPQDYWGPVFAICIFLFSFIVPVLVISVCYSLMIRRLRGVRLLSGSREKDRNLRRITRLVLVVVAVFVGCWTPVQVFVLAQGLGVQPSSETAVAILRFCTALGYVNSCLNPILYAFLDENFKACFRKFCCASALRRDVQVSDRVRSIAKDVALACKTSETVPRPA
LTD4, sequence (Q2NNR5 whole entry): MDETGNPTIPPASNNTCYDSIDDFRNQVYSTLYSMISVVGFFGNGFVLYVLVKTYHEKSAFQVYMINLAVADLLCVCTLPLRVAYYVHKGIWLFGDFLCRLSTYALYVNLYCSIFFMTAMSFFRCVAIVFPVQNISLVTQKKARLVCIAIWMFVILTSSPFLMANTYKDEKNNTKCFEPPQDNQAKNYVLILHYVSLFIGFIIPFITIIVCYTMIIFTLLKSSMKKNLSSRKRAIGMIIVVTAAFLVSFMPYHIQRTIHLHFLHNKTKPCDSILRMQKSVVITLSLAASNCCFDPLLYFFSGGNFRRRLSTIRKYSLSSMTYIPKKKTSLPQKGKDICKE
Dopamine-D1, sequence (P21728 whole entry): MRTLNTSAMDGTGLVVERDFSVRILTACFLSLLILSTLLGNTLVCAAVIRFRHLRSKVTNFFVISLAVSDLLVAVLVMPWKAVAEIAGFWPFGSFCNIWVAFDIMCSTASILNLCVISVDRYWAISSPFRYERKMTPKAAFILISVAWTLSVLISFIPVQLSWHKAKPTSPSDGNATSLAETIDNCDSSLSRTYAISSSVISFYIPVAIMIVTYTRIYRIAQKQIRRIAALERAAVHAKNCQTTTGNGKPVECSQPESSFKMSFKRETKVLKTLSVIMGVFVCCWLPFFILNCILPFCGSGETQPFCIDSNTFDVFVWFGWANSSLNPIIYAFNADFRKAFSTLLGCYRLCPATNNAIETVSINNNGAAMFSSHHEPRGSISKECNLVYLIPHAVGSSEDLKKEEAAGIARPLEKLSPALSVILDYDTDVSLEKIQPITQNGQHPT
PACAP, sequence (P32215 20-523): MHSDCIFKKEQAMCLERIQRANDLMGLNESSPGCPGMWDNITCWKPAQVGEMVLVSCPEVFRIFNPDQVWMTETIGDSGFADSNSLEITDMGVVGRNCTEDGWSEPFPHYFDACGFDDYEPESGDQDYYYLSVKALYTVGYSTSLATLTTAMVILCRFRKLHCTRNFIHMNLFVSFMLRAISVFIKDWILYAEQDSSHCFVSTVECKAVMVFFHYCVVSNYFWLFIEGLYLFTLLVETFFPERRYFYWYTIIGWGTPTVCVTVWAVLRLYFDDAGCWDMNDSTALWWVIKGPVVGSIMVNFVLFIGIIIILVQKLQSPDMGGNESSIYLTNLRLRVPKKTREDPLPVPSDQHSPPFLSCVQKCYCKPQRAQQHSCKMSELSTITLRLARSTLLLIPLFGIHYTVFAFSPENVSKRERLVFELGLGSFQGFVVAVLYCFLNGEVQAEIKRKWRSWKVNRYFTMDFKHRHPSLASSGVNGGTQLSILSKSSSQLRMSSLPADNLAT
β1-adrenergic, sequence (P08588 whole entry): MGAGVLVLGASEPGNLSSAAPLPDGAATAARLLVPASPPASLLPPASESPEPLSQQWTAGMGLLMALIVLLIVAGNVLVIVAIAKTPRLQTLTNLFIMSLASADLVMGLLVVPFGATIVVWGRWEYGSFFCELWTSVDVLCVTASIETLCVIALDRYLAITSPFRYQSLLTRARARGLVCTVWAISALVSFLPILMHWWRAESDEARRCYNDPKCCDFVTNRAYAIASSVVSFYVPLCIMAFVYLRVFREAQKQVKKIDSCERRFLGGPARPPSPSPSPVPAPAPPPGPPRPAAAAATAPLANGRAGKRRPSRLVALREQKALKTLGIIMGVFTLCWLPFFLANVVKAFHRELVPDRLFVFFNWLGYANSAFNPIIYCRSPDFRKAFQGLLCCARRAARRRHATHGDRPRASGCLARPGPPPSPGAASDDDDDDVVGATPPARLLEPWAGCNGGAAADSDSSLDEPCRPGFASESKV
δ-opiate, sequence (P33533 whole entry): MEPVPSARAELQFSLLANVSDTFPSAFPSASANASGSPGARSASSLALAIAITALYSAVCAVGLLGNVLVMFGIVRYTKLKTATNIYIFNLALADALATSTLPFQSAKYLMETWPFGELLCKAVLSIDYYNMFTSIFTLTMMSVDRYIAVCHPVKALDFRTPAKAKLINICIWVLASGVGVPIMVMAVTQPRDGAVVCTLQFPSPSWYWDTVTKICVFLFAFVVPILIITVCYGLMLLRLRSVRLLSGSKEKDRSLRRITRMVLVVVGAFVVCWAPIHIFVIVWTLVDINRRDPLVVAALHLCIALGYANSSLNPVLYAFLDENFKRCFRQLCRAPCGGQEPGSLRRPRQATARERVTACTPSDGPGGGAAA
5-HT3, sequence (P46098 24-478): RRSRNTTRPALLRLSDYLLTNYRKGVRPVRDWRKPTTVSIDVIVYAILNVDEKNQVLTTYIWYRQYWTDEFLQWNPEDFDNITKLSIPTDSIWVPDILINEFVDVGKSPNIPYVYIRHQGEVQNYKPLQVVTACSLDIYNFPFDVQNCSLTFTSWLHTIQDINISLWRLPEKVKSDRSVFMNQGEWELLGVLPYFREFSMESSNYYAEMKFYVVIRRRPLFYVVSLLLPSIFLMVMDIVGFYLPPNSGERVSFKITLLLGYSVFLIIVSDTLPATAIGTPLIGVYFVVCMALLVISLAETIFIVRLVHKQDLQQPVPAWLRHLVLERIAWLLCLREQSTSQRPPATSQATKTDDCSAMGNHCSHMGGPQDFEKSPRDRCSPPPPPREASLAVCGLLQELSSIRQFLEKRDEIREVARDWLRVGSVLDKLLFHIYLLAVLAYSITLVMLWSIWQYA
5-HTreuptake, sequence (P31645 whole entry): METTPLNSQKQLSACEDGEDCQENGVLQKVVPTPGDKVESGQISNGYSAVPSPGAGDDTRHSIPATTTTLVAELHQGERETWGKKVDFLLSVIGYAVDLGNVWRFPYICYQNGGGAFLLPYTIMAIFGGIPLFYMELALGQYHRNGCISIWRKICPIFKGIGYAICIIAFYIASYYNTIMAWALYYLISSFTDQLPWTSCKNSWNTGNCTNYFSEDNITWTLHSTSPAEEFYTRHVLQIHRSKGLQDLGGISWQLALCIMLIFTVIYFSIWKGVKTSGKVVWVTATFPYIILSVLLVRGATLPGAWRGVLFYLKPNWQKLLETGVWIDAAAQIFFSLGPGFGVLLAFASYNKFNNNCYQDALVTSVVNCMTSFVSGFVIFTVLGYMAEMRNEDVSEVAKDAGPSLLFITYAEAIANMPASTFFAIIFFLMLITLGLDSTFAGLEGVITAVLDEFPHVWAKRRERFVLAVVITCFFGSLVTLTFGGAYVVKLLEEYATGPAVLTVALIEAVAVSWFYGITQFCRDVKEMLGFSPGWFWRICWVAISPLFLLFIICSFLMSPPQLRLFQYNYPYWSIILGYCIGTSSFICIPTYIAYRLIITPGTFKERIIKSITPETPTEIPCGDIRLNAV

What is called Ki is a measure of affinity in units of concentration, obtained from inhibition or displacement. In the case of `Nc1cc2cccc(N3CCNCC3)c2oc1=O` [Compound 1, 3-amino-8-(1-piperazinyl)-2H-1-benzopyran-2-one], the Ki on 5-HT3 is 250 nM; on 5-HTreuptake it was greater than 1000 nM; at β1-adrenergic, 50 nM; at Dopamine-D1, greater than 1000 nM; on Dopamine-D4, greater than 1000 nM; on Muscarine-M4, greater than 1000 nM. For the same molecule, the Ki at δ-opiate was greater than 1000 nM; at nociceptin (ORL1), greater than 1000 nM; on Ca++-channel, greater than 1000 nM; on Adenosine-A1, greater than 1000 nM; on LTD4, greater than 10000 nM; at PACAP, greater than 1000 nM.
